Assay results taken from patent US7276519B2, “Thieno[3,2-b]pyridine-6-carbonitriles and thieno[2,3-b]pyridine-5-carbonitriles as protein kinase inhibitors” (Wyeth, priority 2002, dated 2007).

Experiments:
[1] = test system: Rat2 fibroblasts stably transformed with v-Src/Hu c-Src fusion gene; test: Anchorage independent Src-transformed fibroblast proliferation assay; format: cell-based, rat; conditions: for IC50: Rat2, 120 h, suspension growth, MTS readout Day 5, read-out: Src cells IC50; for inhibition at 10 µM: read-out: Src cells % inh at 10 μM
Procedure: Anchorage Independent Src-Transformed Fibroblast Proliferation Assay Rat2 fibroblasts stably transformed with a plasmid containing a CMV promotor controlled v-Src/Hu c-Src fusion gene in which the catalytic domain of human c-Src was inserted in place of the v-Src catalytic domain in the v-Src gene are used for the measurement of src dependent suspension growth. […] Multiple entries for a given compound indicate that it was tested multiple times.

[2] = Rattus norvegicus, Rat2, Table 1

COc1cc(Nc2c(C#N)cnc3sc(-c4ccc(CN5CCOCC5)cc4)cc23)c(Cl)cc1Cl
melting point: 106 to 108 °C

COc1cc(Nc2c(C#N)cnc3cc(C#CCN4CCN(C)CC4)sc23)c(Cl)cc1Cl
melting point: 172 to 173 °C

COc1cc(Nc2c(C#N)cnc3cc(I)sc23)c(Cl)cc1Cl [Example 4, 7-[(2,4-Dichloro-5-methoxyphenyl)amino]-2-iodothieno[3,2-b]pyridine-6-carbonitrile]
IC50 ([1]; Rattus norvegicus, Table 1): 3.1 µM | melting point: 233 to 234 °C

COc1cc(Nc2c(C#N)cnc3sccc23)c(Cl)cc1Cl [Example 5, 4-[(2,4-Dichloro-5-methoxyphenyl)amino]thieno[2,3-b]pyridine-5-carbonitrile]
IC50 ([1]; Rattus norvegicus, Table 1): 5.6 µM | melting point: 197 to 199 °C

Cn1ccnc1Sc1ccc(Nc2c(C#N)cnc3sccc23)cc1Cl [Example 6, 4-[(3-Chloro-4-[(1-methyl-1H-imidazol-2-yl)thio]phenyl)amino]thieno[2,3-b]pyridine-5-carbonitrile]
inhibition at 100 µM ([1]; Rattus norvegicus, Rat2, Table 1, at 100 μM, read-out: Src cells % inh at 100 μM): 3% | melting point: > 240 °C

COc1cc(Nc2c(C#N)cnc3sc(I)cc23)c(Cl)cc1Cl [Example 7, 4-[(2,4-Dichloro-5-methoxyphenyl)amino]-2-iodothieno[2,3-b]pyridine-5-carbonitrile]
inhibition at 10 µM [1, 2]: 31% | melting point: 231 to 233 °C

COc1cc(Nc2c(C#N)cnc3sc(C)cc23)c(Cl)cc1Cl [Example 8, 4-[(2,4-Dichloro-5-methoxyphenyl)amino]-2-methylthieno[2,3-b]pyridine-5-carbonitrile]
inhibition at 10 µM [1, 2]: 33% | melting point: 179 to 181 °C

COc1cc(Nc2c(C#N)cnc3cc(C)sc23)c(Cl)cc1Cl [Example 9, 7-[(2,4-Dichloro-5-methoxyphenyl)amino]-2-methylthieno[3,2-b]pyridine-6-carbonitrile]
IC50 ([1]; Rattus norvegicus, Table 1): 20 µM | melting point: 213 to 214 °C

N#Cc1cnc2ccsc2c1Nc1ccc(Cl)cc1Cl [Example 10, 7-[(2,4-Dichlorophenyl)amino]thieno[3,2-b]pyridine-6-carbonitrile]
IC50 ([1]; Rattus norvegicus, Table 1): 39 µM | melting point: 198 to 200 °C

N#Cc1cnc2ccsc2c1Oc1ccc(Cl)cc1Cl [Example 11, 7-[(2,4-Dichlorophenoxy)]thieno[3,2-b]pyridine-6-carbonitrile]
IC50 ([1]; Rattus norvegicus, Table 1): 23 µM | melting point: 158 to 160 °C

N#Cc1cnc2ccsc2c1Sc1ccc(Cl)cc1Cl [Example 12, 7-[(2,4-Dichlorophenyl)thio]thieno[3,2-b]pyridine-6-carbonitrile]
inhibition at 10 µM [1, 2]: 23% | melting point: 126 to 128 °C

N#Cc1cnc2ccsc2c1NCc1ccc(Cl)cc1Cl [Example 13, 7-[(2,4-Dichlorobenzyl)amino]thieno[3,2-b]pyridine-6-carbonitrile]
inhibition at 10 µM [1, 2]: 34% | melting point: 215 to 216 °C

COc1cc(Nc2c(C#N)cnc3cc(-c4ccc(C=O)cc4)sc23)c(Cl)cc1Cl [Example 14, 7-[(2,4-Dichloro-5-methoxyphenyl)amino]-2-(4-formylphenyl)thieno[3,2-b]pyridine-6-carbonitrile]
IC50 ([1]; Rattus norvegicus, Table 1): 0.66 µM | melting point: 261 to 262 °C

COc1cc(Nc2c(C#N)cnc3cc(-c4ccc(CN5CCN(C)CC5)cc4)sc23)c(Cl)cc1Cl [Example 16, 7-[(2,4-Dichloro-5-methoxyphenyl)amino]-2-[4-(4-methylpiperazin-1-ylmethyl)phenyl]thieno[3,2-b]pyridine-6-carbonitrile]
melting point: 226 to 228 °C

COc1cc(Nc2c(C#N)cnc3cc(-c4ccc(CN5CCCCC5)cc4)sc23)c(Cl)cc1Cl [Example 18, 7-[(2,4-Dichloro-5-methoxyphenyl)amino]-2-[4-(piperidin-1-ylmethyl)phenyl]thieno[3,2-b]pyridine-6-carbonitrile]
IC50 ([1]; Rattus norvegicus, Table 1): 1 µM | melting point: 218 to 220 °C

COc1cc(Nc2c(C#N)cnc3cc(-c4ccc(C(=O)O)cc4)sc23)c(Cl)cc1Cl [Example 19, 4-{6-Cyano-7-[(2,4-dichloro-5-methoxyphenyl)amino]thieno[3,2-b]pyridine-2-yl]benzoic acid]
IC50 ([1]; Rattus norvegicus, Table 1): > 10 µM | melting point: > 300 °C

COc1cc(Nc2c(C#N)cnc3cc(-c4ccc(C(N)=O)cc4)sc23)c(Cl)cc1Cl [Example 20, 4-{6-Cyano-7-[(2,4-dichloro-5-methoxyphenyl)amino]thieno[3,2-b]pyridine-2-yl}benzamide]
IC50 ([1]; Rattus norvegicus, Table 1): 1 µM | melting point: > 300 °C

COc1ccc(C#Cc2cc3ncc(C#N)c(Nc4cc(OC)c(Cl)cc4Cl)c3s2)cc1 [Example 21, 7-[(2,4-Dichloro-5-methoxyphenyl)amino]-2-[(4-methoxyphenyl)ethynyl]thieno[3,2-b]pyridine-6-carbonitrile]
IC50 ([1]; Rattus norvegicus, Table 1): 32 µM | melting point: 249 to 250 °C

COc1cc(Nc2c(C#N)cnc3cc(C#Cc4ccccn4)sc23)c(Cl)cc1Cl [Example 22, 7-[(2,4-Dichloro-5-methoxyphenyl)amino]-2-(pyridin-2-ylethynyl)thieno[3,2-b]pyridine-6-carbonitrile]
IC50 ([1]; Rattus norvegicus, Table 1): 1 µM | melting point: 237 to 239 °C

COc1cc(Nc2c(C#N)cnc3cc(C#CCN(C)C)sc23)c(Cl)cc1Cl [Example 23, 7-[(2,4-Dichloro-5-methoxyphenyl)amino]-2-[3-(dimethylamino)prop-1-ynyl]thieno[3,2-b]pyridine-6-carbonitrile]
IC50 ([1]; Rattus norvegicus, Table 1): 5.6 µM | melting point: 164 to 166 °C

COc1cc(Nc2c(C#N)cnc3cc(-c4cc5ccccc5o4)sc23)c(Cl)cc1Cl [Example 24, 2-(1-Benzofuran-2-yl)-7-[(2,4-dichloro-5-methoxyphenyl)amino]thieno[3,2-b]pyridine-6-carbonitrile]
IC50 ([1]; Rattus norvegicus, Table 1): 3.8 µM | melting point: 281 to 282 °C

COc1cc(Nc2c(C#N)cnc3cc(-c4cccc(C=O)c4)sc23)c(Cl)cc1Cl [Example 25, 7-[(2,4-Dichloro-5-methoxyphenyl)amino]-2-(3-formylphenyl)thieno[3,2-b]pyridine-6-carbonitrile]
IC50 ([1]; Rattus norvegicus, Table 1): 1.1 µM | melting point: 262 to 263 °C

COC(=O)CCCc1cc2c(Nc3cc(OC)c(OC)c(OC)c3)c(C#N)cnc2s1 [Example 29, 4-[5-Cyano-4-(3,4,5-trimethoxyphenylamino)-thieno[2,3-b]pyridin-2-yl]-butyric acid methyl ester]
melting point: 101 to 103 °C

COc1cc(Nc2c(C#N)cnc3sc(CCCCN4CCOCC4)cc23)cc(OC)c1OC [Example 31, 2-[4-(4-Morpholinyl)butyl]-4-[(3,4,5-trimethoxyphenyl)amino]-thieno[2,3-b]pyridine-5-carbonitrile]
IC50 ([1]; Rattus norvegicus, Table 1): 35 µM

COc1cc(Nc2c(C#N)cnc3cc(/C=C/C(=O)O)sc23)c(Cl)cc1Cl [Example 53, (2E)-3-(6-Cyano-7-[(2,4-dichloro-5-methoxyphenyl)amino]thieno[3,2-b]pyridin-2-yl)prop-2-enoate]
Src cells % inh at 100 μM ([1]; Table 1, at 100 μM): 45%

COc1cc(N(C(C)=O)c2c(C#N)cnc3ccsc23)c(Cl)cc1Cl [Example 63, N-(6-Cyanothieno[3,2-b]pyridin-7-yl)-N-(2,4-dichloro-5-methoxyphenyl)acetamide]
melting point: 202 to 204 °C

COc1cc(Nc2c(C#N)cnc3cc(-c4ccsc4C=O)sc23)c(Cl)cc1Cl [Example 78, 7-[(2,4-dichloro-5-methoxyphenyl)amino]-2-(2-formylthien-3-yl)thieno[3,2-b]pyridine-6-carbonitrile]
melting point: 128 to 130 °C

Cn1ccnc1Sc1ccc(Nc2c(C#N)cnc3cc(I)sc23)cc1Cl [Example 82, 7-({3-chloro-4-[(1-methyl-1H-imidazol-2-yl)thio]phenyl}amino)-2-iodothieno[3,2-b]pyridine-6-carbonitrile]
melting point: 290 to 291 °C

Cn1ccnc1Sc1ccc(Nc2c(C#N)cnc3cc(-c4ccc(C=O)cc4)sc23)cc1Cl [Example 97, 7-({3-chloro-4-[(1-methyl-1H-imidazol-2-yl)thio]phenyl}amino)-2-(4-formylphenyl)thieno[3,2-b]pyridine-6-carbonitrile]
melting point: 279 to 281 °C

N#Cc1cnc2cc(I)sc2c1Nc1ccc(Cl)cc1Cl [Example 102, 7-[(2,4-dichlorophenyl)amino]-2-iodothieno[3,2-b]pyridine-6-carbonitrile]
melting point: 230 to 233 °C

CCOc1cc(Nc2c(C#N)cnc3cc(I)sc23)c(Cl)cc1Cl [Example 110, 7-[(2,4-dichloro-5-ethoxyphenyl)amino]-2-iodothieno[3,2-b]pyridine-6-carbonitrile]
melting point: 232 to 233 °C

N#Cc1cnc2cc(-c3ccc(C=O)cc3)sc2c1Nc1ccc(Cl)cc1Cl [Example 115, 7-[(2,4-dichlorophenyl)amino]-2-(4-formylphenyl)thieno[3,2-b]pyridine-6-carbonitrile]
melting point: 170 to 171 °C

CN(C)c1ccc(-c2cc3ncc(C#N)c(Nc4ccc(Cl)cc4Cl)c3s2)cc1 [Example 126, 7-[(2,4-dichlorophenyl)amino]-2-[4-(dimethylamino)phenyl]thieno[3,2-b]pyridine-6-carbonitrile]
melting point: 239 to 241 °C

COc1cc(Nc2c(C#N)cnc3cc(-c4coc(C=O)c4)sc23)c(Cl)cc1Cl [Example 138, 7-[(2,4-dichloro-5-methoxyphenyl)amino]-2-(5-formyl-3-furyl)thieno[3,2-b]pyridine-6-carbonitrile]
melting point: 223 to 224 °C

COc1cc(Nc2c(C#N)cnc3c(Br)csc23)c(Cl)cc1Cl [Example 139, 3-Bromo-7-[(2,4-dichloro-5-methoxyphenyl)amino]thieno[3,2-b]pyridine-6-carbonitrile]
melting point: 265 to 266 °C
